Laboratory results published in publication PMC8333062, “Chemical tools for epichaperome-mediated interactome dysfunctions of the central nervous system” (Nature Communications, 2021).
Like-named read-outs stand apart in the source and are kept apart here.

Experiments:
Test in all cases: scanEDGE off-target screen
Type in all cases: binding
97 kinases [1] = target: T1, 97 kinases (Homo sapiens, UniProt O14757); conditions: read-out: %Ctrl CHEK1
T1 construct: purchased Ambit Biosciences (scanEDGE / KINOMEscan) scanEDGE 97 kinase panel; host or cells: T7 phage in E. coli BL21-derived host; remaining kinases in HEK-293 cells

97 kinases [2] = target: T2, 97 kinases (Homo sapiens, UniProt O14965); conditions: read-out: %Ctrl AURKA
T2 construct: purchased Ambit Biosciences (scanEDGE / KINOMEscan) scanEDGE 97 kinase panel; host or cells: T7 phage in E. coli BL21-derived host; remaining kinases in HEK-293 cells

97 kinases [3] = target: T3, 97 kinases (Homo sapiens, UniProt O15530); conditions: read-out: %Ctrl PDPK1
T3 construct: purchased Ambit Biosciences (scanEDGE / KINOMEscan) scanEDGE 97 kinase panel; host or cells: T7 phage in E. coli BL21-derived host; remaining kinases in HEK-293 cells

97 kinases [4] = target: T4, 97 kinases (Homo sapiens, UniProt O75116); conditions: read-out: %Ctrl ROCK2
T4 construct: purchased Ambit Biosciences (scanEDGE / KINOMEscan) scanEDGE 97 kinase panel; host or cells: T7 phage in E. coli BL21-derived host; remaining kinases in HEK-293 cells

97 kinases [5] = target: T5, 97 kinases (Homo sapiens, UniProt P00519)
T5 construct: purchased Ambit Biosciences (scanEDGE / KINOMEscan) scanEDGE 97 kinase panel; host or cells: T7 phage in E. coli BL21-derived host; remaining kinases in HEK-293 cells

97 kinases [6] = target: T6, 97 kinases (Homo sapiens, UniProt P00533); conditions: read-out: %Ctrl EGFR
T6 construct: purchased Ambit Biosciences (scanEDGE / KINOMEscan) scanEDGE 97 kinase panel; host or cells: T7 phage in E. coli BL21-derived host; remaining kinases in HEK-293 cells

97 kinases [7] = target: T7, 97 kinases (Homo sapiens, UniProt P04626); conditions: read-out: %Ctrl ERBB2
T7 construct: purchased Ambit Biosciences (scanEDGE / KINOMEscan) scanEDGE 97 kinase panel; host or cells: T7 phage in E. coli BL21-derived host; remaining kinases in HEK-293 cells

97 kinases [8] = target: T8, 97 kinases (Homo sapiens, UniProt P06213); conditions: read-out: %Ctrl INSR
T8 construct: purchased Ambit Biosciences (scanEDGE / KINOMEscan) scanEDGE 97 kinase panel; host or cells: T7 phage in E. coli BL21-derived host; remaining kinases in HEK-293 cells

97 kinases [9] = target: T9, 97 kinases (Homo sapiens, UniProt P08069); conditions: read-out: %Ctrl IGF1R
T9 construct: purchased Ambit Biosciences (scanEDGE / KINOMEscan) scanEDGE 97 kinase panel; host or cells: T7 phage in E. coli BL21-derived host; remaining kinases in HEK-293 cells

97 kinases [10] = target: T10, 97 kinases (Homo sapiens, UniProt P10721, T670I/V559D); conditions: read-out: %Ctrl KIT(V559D,T670I)
T10 construct: purchased Ambit Biosciences (scanEDGE / KINOMEscan) scanEDGE 97 kinase panel; host or cells: T7 phage in E. coli BL21-derived host; remaining kinases in HEK-293 cells

97 kinases [11] = target: T11, 97 kinases (Homo sapiens, UniProt P15056); conditions: read-out: %Ctrl BRAF
T11 construct: purchased Ambit Biosciences (scanEDGE / KINOMEscan) scanEDGE 97 kinase panel; host or cells: T7 phage in E. coli BL21-derived host; remaining kinases in HEK-293 cells

97 kinases [12] = target: T12, 97 kinases (Homo sapiens, UniProt P24941); conditions: read-out: %Ctrl CDK2
T12 construct: purchased Ambit Biosciences (scanEDGE / KINOMEscan) scanEDGE 97 kinase panel; host or cells: T7 phage in E. coli BL21-derived host; remaining kinases in HEK-293 cells

97 kinases [13] = target: T13, 97 kinases (Homo sapiens, UniProt P27448); conditions: read-out: %Ctrl MARK3
T13 construct: purchased Ambit Biosciences (scanEDGE / KINOMEscan) scanEDGE 97 kinase panel; host or cells: T7 phage in E. coli BL21-derived host; remaining kinases in HEK-293 cells

97 kinases [14] = target: T14, 97 kinases (Homo sapiens, UniProt P30530); conditions: read-out: %Ctrl AXL
T14 construct: purchased Ambit Biosciences (scanEDGE / KINOMEscan) scanEDGE 97 kinase panel; host or cells: T7 phage in E. coli BL21-derived host; remaining kinases in HEK-293 cells

97 kinases [15] = target: T15, 97 kinases (Homo sapiens, UniProt P36897); conditions: read-out: %Ctrl TGFBR1
T15 construct: purchased Ambit Biosciences (scanEDGE / KINOMEscan) scanEDGE 97 kinase panel; host or cells: T7 phage in E. coli BL21-derived host; remaining kinases in HEK-293 cells

97 kinases [16] = target: T16, 97 kinases (Homo sapiens, UniProt P42336); conditions: read-out: %Ctrl PIK3CA
T16 construct: purchased Ambit Biosciences (scanEDGE / KINOMEscan) scanEDGE 97 kinase panel; host or cells: T7 phage in E. coli BL21-derived host; remaining kinases in HEK-293 cells

97 kinases [17] = target: T17, 97 kinases (Homo sapiens, UniProt P45983); conditions: read-out: %Ctrl JNK1
T17 construct: purchased Ambit Biosciences (scanEDGE / KINOMEscan) scanEDGE 97 kinase panel; host or cells: T7 phage in E. coli BL21-derived host; remaining kinases in HEK-293 cells

97 kinases [18] = target: T18, 97 kinases (Homo sapiens, UniProt P48730); conditions: read-out: %Ctrl CSNK1D
T18 construct: purchased Ambit Biosciences (scanEDGE / KINOMEscan) scanEDGE 97 kinase panel; host or cells: T7 phage in E. coli BL21-derived host; remaining kinases in HEK-293 cells

97 kinases [19] = target: T19, 97 kinases (Homo sapiens, UniProt P48736); conditions: read-out: %Ctrl PIK3CG
T19 construct: purchased Ambit Biosciences (scanEDGE / KINOMEscan) scanEDGE 97 kinase panel; host or cells: T7 phage in E. coli BL21-derived host; remaining kinases in HEK-293 cells

97 kinases [20] = target: T20, 97 kinases (Homo sapiens, UniProt P49841); conditions: read-out: %Ctrl GSK3B
T20 construct: purchased Ambit Biosciences (scanEDGE / KINOMEscan) scanEDGE 97 kinase panel; host or cells: T7 phage in E. coli BL21-derived host; remaining kinases in HEK-293 cells

97 kinases [21] = target: T21, 97 kinases (Homo sapiens, UniProt P51812); conditions: read-out: %Ctrl RSK2(Kin.Dom.1-N-terminal)
T21 construct: purchased Ambit Biosciences (scanEDGE / KINOMEscan) scanEDGE 97 kinase panel; host or cells: T7 phage in E. coli BL21-derived host; remaining kinases in HEK-293 cells

97 kinases [22] = target: T22, 97 kinases (Homo sapiens, UniProt P80192); conditions: read-out: %Ctrl MLK1
T22 construct: purchased Ambit Biosciences (scanEDGE / KINOMEscan) scanEDGE 97 kinase panel; host or cells: T7 phage in E. coli BL21-derived host; remaining kinases in HEK-293 cells

97 kinases [23] = target: T23, 97 kinases (Homo sapiens, UniProt Q00536); conditions: read-out: %Ctrl PCTK1
T23 construct: purchased Ambit Biosciences (scanEDGE / KINOMEscan) scanEDGE 97 kinase panel; host or cells: T7 phage in E. coli BL21-derived host; remaining kinases in HEK-293 cells

97 kinases [24] = target: T24, 97 kinases (Homo sapiens, UniProt Q02763); conditions: read-out: %Ctrl TIE2
T24 construct: purchased Ambit Biosciences (scanEDGE / KINOMEscan) scanEDGE 97 kinase panel; host or cells: T7 phage in E. coli BL21-derived host; remaining kinases in HEK-293 cells

97 kinases [25] = target: T25, 97 kinases (Homo sapiens, UniProt Q05397); conditions: read-out: %Ctrl FAK
T25 construct: purchased Ambit Biosciences (scanEDGE / KINOMEscan) scanEDGE 97 kinase panel; host or cells: T7 phage in E. coli BL21-derived host; remaining kinases in HEK-293 cells

97 kinases [26] = target: T26, 97 kinases (Homo sapiens, UniProt Q06187); conditions: read-out: %Ctrl BTK
T26 construct: purchased Ambit Biosciences (scanEDGE / KINOMEscan) scanEDGE 97 kinase panel; host or cells: T7 phage in E. coli BL21-derived host; remaining kinases in HEK-293 cells

97 kinases [27] = target: T27, 97 kinases (Homo sapiens, UniProt Q13153); conditions: read-out: %Ctrl PAK1
T27 construct: purchased Ambit Biosciences (scanEDGE / KINOMEscan) scanEDGE 97 kinase panel; host or cells: T7 phage in E. coli BL21-derived host; remaining kinases in HEK-293 cells

97 kinases [28] = target: T28, 97 kinases (Homo sapiens, UniProt Q15303); conditions: read-out: %Ctrl ERBB4
T28 construct: purchased Ambit Biosciences (scanEDGE / KINOMEscan) scanEDGE 97 kinase panel; host or cells: T7 phage in E. coli BL21-derived host; remaining kinases in HEK-293 cells

97 kinases [29] = target: T29, 97 kinases (Homo sapiens, UniProt Q15759); conditions: read-out: %Ctrl p38-beta
T29 construct: purchased Ambit Biosciences (scanEDGE / KINOMEscan) scanEDGE 97 kinase panel; host or cells: T7 phage in E. coli BL21-derived host; remaining kinases in HEK-293 cells

97 kinases [30] = target: T30, 97 kinases (Homo sapiens, UniProt Q16539); conditions: read-out: %Ctrl p38-alpha
T30 construct: purchased Ambit Biosciences (scanEDGE / KINOMEscan) scanEDGE 97 kinase panel; host or cells: T7 phage in E. coli BL21-derived host; remaining kinases in HEK-293 cells

97 kinases [31] = target: T31, 97 kinases (Homo sapiens, UniProt Q8IYT8); conditions: read-out: %Ctrl ULK2
T31 construct: purchased Ambit Biosciences (scanEDGE / KINOMEscan) scanEDGE 97 kinase panel; host or cells: T7 phage in E. coli BL21-derived host; remaining kinases in HEK-293 cells

97 kinases [32] = target: T32, 97 kinases (Homo sapiens, UniProt Q8NI60); conditions: read-out: %Ctrl ADCK3
T32 construct: purchased Ambit Biosciences (scanEDGE / KINOMEscan) scanEDGE 97 kinase panel; host or cells: T7 phage in E. coli BL21-derived host; remaining kinases in HEK-293 cells

97 kinases [33] = target: T33, 97 kinases (Homo sapiens, UniProt Q9BVS4); conditions: read-out: %Ctrl RIOK2
T33 construct: purchased Ambit Biosciences (scanEDGE / KINOMEscan) scanEDGE 97 kinase panel; host or cells: T7 phage in E. coli BL21-derived host; remaining kinases in HEK-293 cells

97 kinases [34] = target: T34, 97 kinases (Homo sapiens, UniProt Q9BXA7); conditions: read-out: %Ctrl TSSK1B
T34 construct: purchased Ambit Biosciences (scanEDGE / KINOMEscan) scanEDGE 97 kinase panel; host or cells: T7 phage in E. coli BL21-derived host; remaining kinases in HEK-293 cells

97 kinases [35] = target: T35, 97 kinases (Homo sapiens, UniProt Q9H093); conditions: read-out: %Ctrl SNARK
T35 construct: purchased Ambit Biosciences (scanEDGE / KINOMEscan) scanEDGE 97 kinase panel; host or cells: T7 phage in E. coli BL21-derived host; remaining kinases in HEK-293 cells

97 kinases [36] = target: T36, 97 kinases (Homo sapiens, UniProt Q9H4B4); conditions: read-out: %Ctrl PLK3
T36 construct: purchased Ambit Biosciences (scanEDGE / KINOMEscan) scanEDGE 97 kinase panel; host or cells: T7 phage in E. coli BL21-derived host; remaining kinases in HEK-293 cells

97 kinases [37] = target: T37, 97 kinases (Homo sapiens, UniProt Q9P1W9); conditions: read-out: %Ctrl PIM2
T37 construct: purchased Ambit Biosciences (scanEDGE / KINOMEscan) scanEDGE 97 kinase panel; host or cells: T7 phage in E. coli BL21-derived host; remaining kinases in HEK-293 cells

T5 sequence (P00519 whole entry): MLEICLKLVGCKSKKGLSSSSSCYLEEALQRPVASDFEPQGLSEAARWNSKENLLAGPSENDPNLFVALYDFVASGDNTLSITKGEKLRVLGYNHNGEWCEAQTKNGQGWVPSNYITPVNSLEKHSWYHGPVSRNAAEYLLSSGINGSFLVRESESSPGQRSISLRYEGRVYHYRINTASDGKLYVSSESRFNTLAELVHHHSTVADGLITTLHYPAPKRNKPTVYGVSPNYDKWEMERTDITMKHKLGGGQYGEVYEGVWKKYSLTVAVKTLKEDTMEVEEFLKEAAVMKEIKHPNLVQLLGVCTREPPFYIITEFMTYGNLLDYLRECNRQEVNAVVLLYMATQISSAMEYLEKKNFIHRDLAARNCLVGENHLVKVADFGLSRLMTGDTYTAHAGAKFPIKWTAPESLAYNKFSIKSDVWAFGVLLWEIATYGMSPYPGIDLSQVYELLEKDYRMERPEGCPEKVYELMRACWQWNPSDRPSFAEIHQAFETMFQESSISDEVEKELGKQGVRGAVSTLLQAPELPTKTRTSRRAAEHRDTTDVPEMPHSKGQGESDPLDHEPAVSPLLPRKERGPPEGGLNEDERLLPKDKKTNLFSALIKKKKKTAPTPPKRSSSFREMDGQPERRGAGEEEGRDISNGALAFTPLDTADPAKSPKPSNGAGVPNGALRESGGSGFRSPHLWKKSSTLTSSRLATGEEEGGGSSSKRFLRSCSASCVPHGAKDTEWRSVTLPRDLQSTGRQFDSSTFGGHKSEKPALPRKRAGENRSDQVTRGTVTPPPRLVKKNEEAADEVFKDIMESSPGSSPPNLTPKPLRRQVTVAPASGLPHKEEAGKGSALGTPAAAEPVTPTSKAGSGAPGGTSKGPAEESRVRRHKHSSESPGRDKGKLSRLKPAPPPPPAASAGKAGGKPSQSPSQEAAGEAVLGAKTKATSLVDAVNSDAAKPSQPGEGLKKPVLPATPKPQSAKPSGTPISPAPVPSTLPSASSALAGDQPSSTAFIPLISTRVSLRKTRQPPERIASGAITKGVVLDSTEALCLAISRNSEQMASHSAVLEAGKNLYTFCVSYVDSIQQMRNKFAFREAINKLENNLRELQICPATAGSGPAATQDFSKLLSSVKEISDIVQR
T7 sequence (P04626 23-1255): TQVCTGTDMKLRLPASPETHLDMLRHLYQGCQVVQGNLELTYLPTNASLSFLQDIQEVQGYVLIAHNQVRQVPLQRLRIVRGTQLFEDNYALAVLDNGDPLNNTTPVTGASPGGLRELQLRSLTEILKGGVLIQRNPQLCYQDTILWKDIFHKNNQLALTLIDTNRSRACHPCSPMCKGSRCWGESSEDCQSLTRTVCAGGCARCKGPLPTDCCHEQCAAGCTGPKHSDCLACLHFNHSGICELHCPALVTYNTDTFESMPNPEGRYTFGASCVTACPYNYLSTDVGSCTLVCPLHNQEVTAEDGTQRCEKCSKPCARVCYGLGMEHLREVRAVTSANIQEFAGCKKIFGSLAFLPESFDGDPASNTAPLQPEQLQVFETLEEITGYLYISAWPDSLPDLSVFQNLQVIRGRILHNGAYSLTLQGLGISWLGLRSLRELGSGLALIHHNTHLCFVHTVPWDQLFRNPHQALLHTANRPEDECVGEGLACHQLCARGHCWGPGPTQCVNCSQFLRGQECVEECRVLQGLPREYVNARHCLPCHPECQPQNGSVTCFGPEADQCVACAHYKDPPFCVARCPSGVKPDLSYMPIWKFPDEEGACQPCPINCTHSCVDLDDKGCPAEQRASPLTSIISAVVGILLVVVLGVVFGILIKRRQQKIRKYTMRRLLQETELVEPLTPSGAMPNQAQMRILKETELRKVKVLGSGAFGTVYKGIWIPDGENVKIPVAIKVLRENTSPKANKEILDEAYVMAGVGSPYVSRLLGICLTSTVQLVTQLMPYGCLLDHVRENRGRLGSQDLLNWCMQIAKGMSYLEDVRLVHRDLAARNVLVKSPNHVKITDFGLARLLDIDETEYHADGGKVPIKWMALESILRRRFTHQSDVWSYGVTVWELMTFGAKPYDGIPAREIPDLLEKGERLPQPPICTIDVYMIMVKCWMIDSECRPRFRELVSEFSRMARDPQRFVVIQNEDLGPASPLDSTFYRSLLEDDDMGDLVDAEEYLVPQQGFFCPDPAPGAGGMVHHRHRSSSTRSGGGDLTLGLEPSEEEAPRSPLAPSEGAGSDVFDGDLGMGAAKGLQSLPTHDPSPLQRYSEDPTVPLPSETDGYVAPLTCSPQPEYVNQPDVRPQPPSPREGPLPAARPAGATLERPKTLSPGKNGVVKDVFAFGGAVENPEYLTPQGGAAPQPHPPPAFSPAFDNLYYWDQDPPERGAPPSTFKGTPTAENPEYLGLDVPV
T3 sequence (O15530 whole entry): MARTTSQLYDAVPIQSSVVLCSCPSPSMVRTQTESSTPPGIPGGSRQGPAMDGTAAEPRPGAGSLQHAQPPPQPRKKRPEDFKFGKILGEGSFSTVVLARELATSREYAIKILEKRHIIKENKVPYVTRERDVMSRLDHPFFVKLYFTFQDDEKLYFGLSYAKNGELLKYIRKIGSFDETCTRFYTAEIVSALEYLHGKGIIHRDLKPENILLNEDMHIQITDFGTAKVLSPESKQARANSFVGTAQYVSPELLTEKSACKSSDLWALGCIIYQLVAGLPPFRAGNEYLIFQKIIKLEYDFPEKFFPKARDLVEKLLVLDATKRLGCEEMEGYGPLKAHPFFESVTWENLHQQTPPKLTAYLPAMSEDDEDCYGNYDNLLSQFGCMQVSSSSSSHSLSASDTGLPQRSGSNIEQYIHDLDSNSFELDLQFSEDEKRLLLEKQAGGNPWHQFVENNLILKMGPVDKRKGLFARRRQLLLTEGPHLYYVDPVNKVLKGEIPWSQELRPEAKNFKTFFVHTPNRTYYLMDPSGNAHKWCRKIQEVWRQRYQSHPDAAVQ
T20 sequence (P49841 whole entry): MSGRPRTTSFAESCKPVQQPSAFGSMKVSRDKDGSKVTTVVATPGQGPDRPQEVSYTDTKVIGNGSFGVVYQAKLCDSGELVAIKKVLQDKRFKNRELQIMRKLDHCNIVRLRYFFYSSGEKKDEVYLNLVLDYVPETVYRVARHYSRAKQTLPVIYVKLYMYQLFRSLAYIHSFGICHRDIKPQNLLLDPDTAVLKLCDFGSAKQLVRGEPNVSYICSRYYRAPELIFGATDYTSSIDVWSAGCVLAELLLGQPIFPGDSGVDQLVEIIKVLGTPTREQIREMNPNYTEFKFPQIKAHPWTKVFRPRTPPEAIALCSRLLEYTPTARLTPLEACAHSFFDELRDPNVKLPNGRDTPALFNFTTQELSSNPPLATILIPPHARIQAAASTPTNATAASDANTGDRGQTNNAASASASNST
T13 sequence (P27448 whole entry): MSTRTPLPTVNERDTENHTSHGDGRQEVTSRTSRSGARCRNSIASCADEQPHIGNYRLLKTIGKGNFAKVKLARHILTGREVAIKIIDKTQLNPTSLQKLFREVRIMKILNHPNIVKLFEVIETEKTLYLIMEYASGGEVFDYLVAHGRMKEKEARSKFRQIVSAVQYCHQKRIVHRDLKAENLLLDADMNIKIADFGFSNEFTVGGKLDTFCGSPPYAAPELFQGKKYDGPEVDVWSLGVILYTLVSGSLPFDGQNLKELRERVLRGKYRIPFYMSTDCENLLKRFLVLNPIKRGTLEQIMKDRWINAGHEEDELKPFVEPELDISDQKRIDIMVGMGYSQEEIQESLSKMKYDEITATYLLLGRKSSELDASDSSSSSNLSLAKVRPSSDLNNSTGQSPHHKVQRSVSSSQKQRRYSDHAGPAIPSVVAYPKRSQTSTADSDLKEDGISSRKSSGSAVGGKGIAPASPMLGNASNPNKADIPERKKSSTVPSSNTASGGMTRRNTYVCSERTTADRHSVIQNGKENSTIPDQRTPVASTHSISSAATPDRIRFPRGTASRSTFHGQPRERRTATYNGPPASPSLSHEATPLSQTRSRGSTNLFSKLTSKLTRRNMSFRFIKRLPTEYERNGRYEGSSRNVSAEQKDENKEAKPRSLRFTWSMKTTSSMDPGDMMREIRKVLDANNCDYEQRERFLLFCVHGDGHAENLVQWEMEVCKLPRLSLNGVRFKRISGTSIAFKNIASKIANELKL
T32 sequence (Q8NI60 163-647): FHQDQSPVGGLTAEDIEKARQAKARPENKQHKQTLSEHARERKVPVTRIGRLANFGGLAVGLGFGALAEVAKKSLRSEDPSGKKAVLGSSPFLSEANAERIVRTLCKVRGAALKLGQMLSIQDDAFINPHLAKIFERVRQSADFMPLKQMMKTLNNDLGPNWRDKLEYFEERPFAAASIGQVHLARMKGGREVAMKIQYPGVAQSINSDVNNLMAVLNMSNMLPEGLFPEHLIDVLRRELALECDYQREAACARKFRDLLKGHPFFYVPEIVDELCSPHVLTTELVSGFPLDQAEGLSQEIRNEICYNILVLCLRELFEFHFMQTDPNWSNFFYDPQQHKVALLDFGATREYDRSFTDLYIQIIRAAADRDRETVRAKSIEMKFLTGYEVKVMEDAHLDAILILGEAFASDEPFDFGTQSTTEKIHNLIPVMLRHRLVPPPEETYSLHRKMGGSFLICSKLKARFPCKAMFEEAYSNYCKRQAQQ
T15 sequence (P36897 34-503): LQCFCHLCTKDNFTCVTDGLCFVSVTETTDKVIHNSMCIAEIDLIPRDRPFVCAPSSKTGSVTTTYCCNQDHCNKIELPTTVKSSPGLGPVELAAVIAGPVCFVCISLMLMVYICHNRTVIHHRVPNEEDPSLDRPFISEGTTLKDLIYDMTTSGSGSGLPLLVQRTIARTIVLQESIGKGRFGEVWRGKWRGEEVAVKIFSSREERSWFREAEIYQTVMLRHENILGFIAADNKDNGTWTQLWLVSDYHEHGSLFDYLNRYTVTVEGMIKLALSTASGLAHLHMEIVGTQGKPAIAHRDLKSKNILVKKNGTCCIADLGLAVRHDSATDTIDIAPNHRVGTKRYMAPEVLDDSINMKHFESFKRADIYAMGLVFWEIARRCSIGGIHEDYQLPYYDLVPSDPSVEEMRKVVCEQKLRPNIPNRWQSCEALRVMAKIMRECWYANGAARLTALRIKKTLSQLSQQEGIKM

CC(C)(C)CNCCn1c(Sc2cc3c(cc2I)OCO3)nc2c(N)ncnc21 [Compound 85]
remaining binding at 10 µM (97 kinases [1]): 100%
remaining binding at 10 µM (97 kinases [2]): 96%
remaining binding at 10 µM (97 kinases [3]): 77%
remaining binding at 10 µM (97 kinases [4]): 97%
remaining binding at 10 µM (97 kinases [5]; read-out: %Ctrl ABL1-nonphosphorylated): 50%
remaining binding at 10 µM (97 kinases [5]; read-out: %Ctrl ABL1-phosphorylated): 70%
remaining binding at 10 µM (97 kinases [6]): 96%
remaining binding at 10 µM (97 kinases [7]): 100%
remaining binding at 10 µM (97 kinases [8]): 92%
remaining binding at 10 µM (97 kinases [9]): 100%
remaining binding at 10 µM (97 kinases [10]): 96%
remaining binding at 10 µM (97 kinases [11]): 100%
remaining binding at 10 µM (97 kinases [12]): 98%
remaining binding at 10 µM (97 kinases [13]): 100%
remaining binding at 10 µM (97 kinases [14]): 100%
remaining binding at 10 µM (97 kinases [15]): 63%
remaining binding at 10 µM (97 kinases [16]): 87%
remaining binding at 10 µM (97 kinases [17]): 96%
remaining binding at 10 µM (97 kinases [18]): 91%
remaining binding at 10 µM (97 kinases [19]): 94%
remaining binding at 10 µM (97 kinases [20]): 88%
remaining binding at 10 µM (97 kinases [21]): 84%
remaining binding at 10 µM (97 kinases [22]): 100%
remaining binding at 10 µM (97 kinases [23]): 100%
remaining binding at 10 µM (97 kinases [24]): 100%
remaining binding at 10 µM (97 kinases [25]): 96%
remaining binding at 10 µM (97 kinases [26]): 100%
remaining binding at 10 µM (97 kinases [27]): 92%
remaining binding at 10 µM (97 kinases [28]): 100%
remaining binding at 10 µM (97 kinases [29]): 89%
remaining binding at 10 µM (97 kinases [30]): 100%
remaining binding at 10 µM (97 kinases [31]): 94%
remaining binding at 10 µM (97 kinases [32]): 92%
remaining binding at 10 µM (97 kinases [33]): 94%
remaining binding at 10 µM (97 kinases [34]): 51%
remaining binding at 10 µM (97 kinases [35]): 100%
remaining binding at 10 µM (97 kinases [36]): 88%
remaining binding at 10 µM (97 kinases [37]): 81%
